Measurements taken from paper PMC7347559, “Inhibition of the ATP synthase sensitizes Staphylococcus aureus towards human antimicrobial peptides” (Scientific Reports, 2020).
Converted amounts (≈) assume the structure as drawn. Where a SMILES comes first, the peptide text is derived from it. Bridges are numbered along the chain shown (N, C = ends). Where no end group is shown, it is not given here. [ ]: non-standard residue; d: D form. The star is where a group is joined. X1 = CC[C@H](C)CCCCC(=O)*; Dab = NCC[C@H](N)C(=O)O

How the values were obtained:
menD::ΦNΣ = experiment: Etest MIC on TSA; assay type: cell-based, Staphylococcus aureus; details: 37 °C, 24 h
Description: (§1) The MIC for polymyxin B was determined using Etest (bioMérieux, France) in the absence and in the presence of sub-inhibitory concentrations (0.0625x–0.25 × MIC) of resveratrol or menadione (1 µg/ml, Sigma). From overnight cultures, strains were diluted to approximately 10^8 CFU/ml and then distributed on TSA plates using a sterile cotton swab.

S. aureus JE2 [1] = experiment: Etest MIC on TSA; assay type: cell-based, Staphylococcus aureus; details: 37 °C, 24 h
Description: as §1

[2] = system: atpA^+ (allelic exchange of transposon insertion with intact atpA gene); experiment: Etest MIC on TSA; assay type: cell-based, Staphylococcus aureus; details: 37 °C, 24 h
Description: as §1

atpA::ΦNΣ = experiment: Etest MIC on TSA; assay type: cell-based, Staphylococcus aureus; details: 37 °C, 24 h
Description: as §1

[3] = system: S. aureus JE2 atpA mutant (atpA::ΦNΣ); experiment: Bacterial cell survival assay (CFU after 2 h exposure in NaPi); assay type: cell-based, Staphylococcus aureus; details: for difference in susceptibility / survival between atpA mutant and WT (in words): 2 h exposure at the concentrations highlighted in Fig. 1a
Description: (§2) From overnight cultures of S. aureus JE2 and mutants, 10 μl was diluted into 990 μl fresh TSB medium in a falcon tube and grown for 2 h for the cells to reach early exponential phase. After 2 h the cultures were re-suspended in 10 mM sodium phosphate buffer (pH 7.4), termed NaPi (Medicago, Sweden). Cells were subsequently diluted in NaPi to approximately 5 × 10^5 CFU/ml, and combined with antimicrobial peptides and resveratrol when indicated, to a final volume of 100 µl and incubated in 96-well plates with shaking for 2 h at 37 °C. Bacteria were plated for CFU on TSA plates. Following overnight incubation at 37 °C for 24 h, viable cells were enumerated and relative cell survival was calculated as CFUwith peptide/CFUwithout peptide at 2 h post-exposure.

[4] = system: opsonized S. aureus JE2 WT in human neutrophils; details: 1 h incubation, MOI 1, opsonized with 10% normal human serum; mean of at least seven replicates; without DPI 49.9%
Description: (§3) Blood was collected from healthy adult volunteers and written informed consent was given. Isolation of neutrophils was performed following the procedure described in[36]. All methods were carried out in accordance with relevant guidelines and regulations. The institutional review board (IRB) of the University of Tübingen approved the study and all adult subjects provided informed consent. This study was done in accordance with the ethics committee of the medical faculty of the University of Tübingen that approved the study, Approval number 015/2014 BO2. Briefly, heparinized blood was diluted 1:1 (v/v) with PBS containing 0.5% BSA and 2 mM EDTA and layered onto a gradient of Biocoll (density, 1.077 g/ml; Biochrom) and Histopaque (density, 1.119 g/ml; Sigma). After centrifugation for 20 min at 380×g, neutrophils were collected from the Histopaque phase. Cells were subjected to a brief hypotonic shock with ultrapure-water containing 155 mM ammonium chloride, 1 mM potassium hydrogen carbonate and 0.1 mM EDTA at pH 7.4, washed, and suspended at 2.5 × 10^6 cells/ml in RPMI containing […] HSA, 2 mM glutamine, 2 mM sodium pyruvate and 10 mM HEPES.
(§4) Starter cultures of S. aureus JE2 and its respective atpA mutant were grown in TSB medium overnight.

[5] = system: opsonized S. aureus JE2 atpA mutant in human neutrophils; details: 1 h incubation, MOI 1, opsonized with 10% normal human serum; mean of at least seven replicates; without DPI 39.2%
Description: as §3, §4

[6] = system: S. aureus JE2 menD mutant (menD::ΦNΣ); experiment: Bacterial cell survival assay (CFU after 2 h exposure in NaPi); assay type: cell-based, Staphylococcus aureus; details: hBD4 5 µM
Description: as §2

[7] = system: S. aureus JE2 atpB mutant (atpB::ΦNΣ); experiment: as above; assay type: cell-based, Staphylococcus aureus; details: hBD4 5 µM
Description: as §2

[8] = system: S. aureus JE2 atpG mutant (atpG::ΦNΣ); experiment: as above; assay type: cell-based, Staphylococcus aureus; details: hBD4 5 µM
Description: as §2

S. aureus JE2 [9] = experiment: Two-fold broth microdilution MIC in TSB; assay type: cell-based; details: Staphylococcus aureus, JE2, 24 h
Description: The minimum inhibitory concentration for resveratrol was determined using a two-fold broth microdilution assay in TSB (100 µl) with an initial inoculum of approximately 5 × 10^5 cells/ml.

S. aureus JE2 (WT) = experiment: Bacterial cell survival assay (CFU after 2 h exposure in NaPi); assay type: cell-based, Staphylococcus aureus
Description: as §2

## CC[C@H](C)CCCCC(=O)N[C@@H](CCN)C(=O)N[C@H](C(=O)N[C@@H](CCN)C(=O)N[C@H]1CCNC(=O)[C@H]([C@@H](C)O)NC(=O)[C@H](CCN)NC(=O)[C@H](CCN)NC(=O)[C@H](CC(C)C)NC(=O)[C@@H](Cc2ccccc2)NC(=O)[C@H](CCN)NC1=O)[C@@H](C)O [polymyxin B] (X1-[Dab]T[Dab][Dab][Dab][dF]L[Dab][Dab]T; lactam 4-C (inferred); N-terminus assumed)
menD::ΦNΣ; TSA + menadione (1 µg/ml)
  MIC: 192 µg/mL
menD::ΦNΣ; TSA
  MIC: > 1024 µg/mL
S. aureus JE2 [1]; TSA + 0 µg/ml resveratrol
  Polymyxin B MIC: 128 µg/mL
S. aureus JE2 [1]; TSA + 16 µg/ml resveratrol
  Polymyxin B MIC: 64 to 96 µg/mL
S. aureus JE2 [1]; TSA + 32 µg/ml resveratrol
  Polymyxin B MIC: 48 µg/mL
S. aureus JE2 [1]; TSA + 64 µg/ml resveratrol
  Polymyxin B MIC: 24 µg/mL
S. aureus JE2 [1]; TSA
  MIC: 128 µg/mL (≈ 106 µM)
[2]
  MIC: 96 µg/mL (≈ 79.8 µM)
atpA::ΦNΣ
  MIC: 16 µg/mL (≈ 13.3 µM)

## hBD1: human β-defensin 1 (Innovagen) (DHYNCVSSGGQCLYSACPIFTKIQGTCYRGKAKCCK; ends and bridges not checked; cysteine pairing not given here; UniProt P60022 33-68, looked up)
[3]
  difference in susceptibility / survival between atpA mutant and WT (in words): no differences

## c1ccc2c(c1)[I+]c1ccccc1-2 [DPI, diphenyleneiodonium]
[4]
  surviving WT cells in DPI-treated neutrophils, percentage of initial counts: 91.4%
[5]
  surviving atpA cells in DPI-treated neutrophils, percentage of initial counts: 74.3%

## histatin-5
[3]
  difference in susceptibility / survival between atpA mutant and WT (in words): minor increase in bactericidal activity

## hBD3: human β-defensin 3 (Innovagen) (GIINTLQKYYCRVRGGRCAVLSCLPKEEQIGKCSTRGRKCCRRKK; ends and bridges not checked; cysteine pairing not given here; UniProt P81534 23-67, looked up)
[3]
  difference in susceptibility / survival between atpA mutant and WT (in words): no differences

## hBD4: human β-defensin 4 (Innovagen) (EFELDRICGYGTARCRKKCRSQEYRIGRCPNTYACCLRKWDESLLNRTKP; ends and bridges not checked; cysteine pairing not given here; UniProt Q8WTQ1 23-72, looked up)
[6]
  reduction in viable cell count of menD mutant: no reduction in viable cell count
[7]
  susceptibility of atpB mutant compared with WT: increased susceptibility
[8]
  susceptibility of atpG mutant compared with WT: increased susceptibility
[3]
  difference in susceptibility / survival between atpA mutant and WT (in words): more susceptible
[3]; 2 h exposure, concentrations of Fig. 1a (5 µM)
  greater reduction in viable cells of atpA mutant compared with WT: 63 fold

## Oc1ccc(/C=C/c2cc(O)cc(O)c2)cc1 [resveratrol]
S. aureus JE2 [9]
  MIC: 256 µg/mL (≈ 1120 µM)
S. aureus JE2 (WT); resveratrol 32 µg/ml in combination with hBD4 5 µM
  increase in killing of WT S. aureus compared with hBD4 alone: 20 fold
S. aureus JE2 (WT); resveratrol alone at sub-inhibitory concentration 0.125 × MIC (32 µg/ml)
  impact on S. aureus viability: no impact

## LL-37 (LLGDFFRKSKEKIGKEFKRIVQRIKDFLRNLVPRTES; Antibacterial peptide LL-37; UniProt P49913 134-170, looked up) [human antimicrobial peptide of the cathelicidin family (Isca Biochemicals)]
[3]
  difference in susceptibility / survival between atpA mutant and WT (in words): minor increase in bactericidal activity
